In patent US10323036B2 (Nimbus Lakshmi, Inc., priority 2016, dated 2019):
Read-outs that look alike come from different tables or passages of the source.

Target: human TYK2 (JH2domain-pseudokinase) (Homo sapiens (Human), UniProt P29597)
Experiment: TYK2 JH2 Domain Binding Assay (KINOMEscan)
Conditions: read-out: JH2 Kd
[1] = Table 5, Tyk2 JH2 Domain Binding Assay

Chain of human TYK2 (JH2domain-pseudokinase) (P29597 556-888): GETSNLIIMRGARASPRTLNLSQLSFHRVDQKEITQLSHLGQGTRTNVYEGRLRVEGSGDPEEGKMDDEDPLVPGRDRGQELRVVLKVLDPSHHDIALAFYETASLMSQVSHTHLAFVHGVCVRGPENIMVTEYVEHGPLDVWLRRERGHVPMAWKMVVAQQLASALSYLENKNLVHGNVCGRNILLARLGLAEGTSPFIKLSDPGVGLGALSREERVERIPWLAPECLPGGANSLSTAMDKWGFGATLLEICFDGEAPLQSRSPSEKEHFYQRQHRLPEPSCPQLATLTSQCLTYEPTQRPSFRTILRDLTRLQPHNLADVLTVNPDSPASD

Row | Kd (Table 4, JH2 binding assay) [nM] | Kd [1] [nM] | SMILES
1 | 0.1 to 0.5 |  | Cc1cc(Nc2cc(Nc3ccccc3S(C)(=O)=O)c3c(=O)n(C)[nH]c3n2)ncc1F [Compound I-107, 6-((5-fluoro-4-methylpyridin-2-yl)amino)-2-methyl-4-((2-(methylsulfonyl)phenyl)amino)-1,2-dihydro-3H-pyrazolo[3,4-b]pyridin-3-one]
2 | > 10 |  | COc1c(Nc2cc(Cl)nc3[nH]n(C)c(=O)c23)cccc1-c1nnn(C)n1 [Compound I-27]
3 | 0.5 to 1 |  | COc1c(F)cccc1Nc1cc(NC(=O)C2CC2)nc2[nH]n(C)c(=O)c12 [Compound I-48, N-(4-((3-fluoro-2-methoxyphenyl)amino)-2-methyl-3-oxo-2,3-dihydro-1H-pyrazolo[3,4-b]pyridin-6-yl)cyclopropanecarboxamide]
4 | 0.1 to 0.5 |  | Cc1ccc(Nc2cc(Nc3ccccc3S(C)(=O)=O)c3c(=O)n(C)[nH]c3n2)nn1 [Compound I-109, 2-methyl-6-((6-methylpyridazin-3-yl)amino)-4-((2-(methylsulfonyl)phenyl)amino)-1,2-dihydro-3H-pyrazolo[3,4-b]pyridin-3-one]
5 | 0.1 to 0.5 |  | COc1c(Cl)cccc1Nc1cc(Nc2ccc(C(=O)N3CCOCC3)c(C(F)(F)F)n2)nc2[nH]n(C)c(=O)c12 [Compound I-130, 4-((3-chloro-2-methoxyphenyl)amino)-2-methyl-6-((5-(morpholine-4-carbonyl)-6-(trifluoromethyl)pyridin-2-yl)amino)-1,2-dihydro-3H-pyrazolo[3,4-b]pyridin-3-one]
6 | 0.1 to 0.5 |  | Cc1cc(Nc2cc(Nc3ccccc3S(C)(=O)=O)c3c(=O)n(C)[nH]c3n2)nc(C)n1 [Compound I-108, 6-((2,6-dimethylpyrimidin-4-yl)amino)-2-methyl-4-((2-(methylsulfonyl)phenyl)amino)-1,2-dihydro-3H-pyrazolo[3,4-b]pyridin-3-one]
7 | 1 to 10 |  | Cn1[nH]c2nc(NC(=O)[C@@H]3CC3(F)F)cc(Nc3ccc(C4CC4)cc3S(C)(=O)=O)c2c1=O [Compound I-237]
8 | 0.5 to 1 |  | Cc1ccnc(Nc2cc(Nc3ccccc3S(C)(=O)=O)c3c(=O)n(C)[nH]c3n2)c1 [Compound I-138, 2-methyl-6-((4-methylpyridin-2-yl)amino)-4-((2-(methylsulfonyl)phenyl)amino)-1,2-dihydro-3H-pyrazolo[3,4-b]pyridin-3-one]
9 |  | 1 to 10 | COc1c(Nc2cc(Nc3cccc(C#N)n3)ncc2-c2ncc(Cl)s2)cccc1-c1nnn(C)n1 [VIII-15, 6-((5-(5-chlorothiazol-2-yl)-4-((2-methoxy-3-(2-methyl-2H-tetrazol-5-yl)phenyl)amino)pyridin-2-yl)amino)picolinonitrile]
10 | > 10 |  | COc1c(Nc2cc(Nc3ccc(N4CCCC4)cn3)nc3[nH]n(C)c(=O)c23)cccc1-c1nnn(C)n1 [Compound I-58, 4-((2-methoxy-3-(2-methyl-2H-tetrazol-5-yl)phenyl)amino)-2-methyl-6-((5-(pyrrolidin-1-yl)pyridin-2-yl)amino)-1,2-dihydro-3H-pyrazolo[3,4-b]pyridin-3-one]
11 | 0.1 to 0.5 |  | Cc1cc(Nc2cc(Nc3ccc(Cl)cc3S(C)(=O)=O)c3c(=O)n(C)[nH]c3n2)nc(C)n1 [Compound I-199, 4-((4-chloro-2-(methylsulfonyl)phenyl)amino)-6-((2,6-dimethylpyrimidin-4-yl)amino)-2-methyl-1,2-dihydro-3H-pyrazolo[3,4-b]pyridin-3-one]
12 | > 10 |  | COc1c(Nc2cc(Nc3cc(C)ccn3)nc3[nH]n(C)c(=O)c23)cccc1-c1nccs1 [Compound I-43]
13 | 1 to 10 |  | COc1c(F)cccc1Nc1cc(Nc2ccc(N3CCCCC3)cn2)nc2[nH]n(C)c(=O)c12 [Compound I-77, 4-((3-fluoro-2-methoxyphenyl)amino)-2-methyl-6-((5-(piperidin-1-yl)pyridin-2-yl)amino)-1,2-dihydro-3H-pyrazolo[3,4-b]pyridin-3-one]
14 | 0.5 to 1 |  | CN(c1cc(F)c(F)cc1Nc1cc(NC(=O)C2CC2)nc2[nH]n(C)c(=O)c12)S(C)(=O)=O [Compound I-230, N-(4-((4,5-difluoro-2-(N-methylmethylsulfonamido)phenyl)amino)-2-methyl-3-oxo-2,3-dihydro-1H-pyrazolo[3,4-b]pyridin-6-yl)cyclopropanecarboxamide]
15 | 1 to 10 |  | COC1CN(c2cccc(Nc3cc(Nc4ccccc4S(C)(=O)=O)c4c(=O)n(C)[nH]c4n3)n2)C1 [Compound I-140, 6-((6-(3-methoxyazetidin-1-yl)pyridin-2-yl)amino)-2-methyl-4-((2-(methylsulfonyl)phenyl)amino)-1,2-dihydro-3H-pyrazolo[3,4-b]pyridin-3-one]
16 |  | > 100 | COc1c(Nc2cc(NC(=O)C3CC3)ncc2-c2ccon2)cccc1-c1nnn(C)n1 [VIII-8, N-(5-(isoxazol-3-yl)-4-((2-methoxy-3-(2-methyl-2H-tetrazol-5-yl)phenyl)amino)pyridin-2-yl)cyclopropanecarboxamide]
17 | < 0.1 |  | COc1c(Nc2cc(Nc3ccccn3)nc3[nH]n(C)c(=O)c23)cccc1-c1ncn(C)n1 [Compound I-17, 4-((2-methoxy-3-(1-methyl-1H-1,2,4-triazol-3-yl)phenyl)amino)-2-methyl-6-(pyridin-2-ylamino)-1,2-dihydro-3H-pyrazolo[3,4-b]pyridin-3-one]
18 | > 10 |  | COc1c(C#N)cccc1Nc1cc(Nc2cc(C)c(F)cn2)nc2[nH]n(C)c(=O)c12 [Compound I-37]
19 |  | > 100 | COc1c(Nc2cc(NC(=O)C3CC3)ncc2-c2noc(CO)n2)cccc1-c1ncn(C)n1 [VIII-9, N-(5-(5-(hydroxymethyl)-1,2,4-oxadiazol-3-yl)-4-((2-methoxy-3-(1-methyl-1H-1,2,4-triazol-3-yl)phenyl)amino)pyridin-2-yl)cyclopropanecarboxamide]
20 | 0.1 to 0.5 |  | COc1c(Nc2cc(Nc3cc(C#N)ncn3)nc3[nH]n(C)c(=O)c23)cccc1-c1nnn(C)n1 [Compound I-29, 6-((4-((2-methoxy-3-(2-methyl-2H-tetrazol-5-yl)phenyl)amino)-2-methyl-3-oxo-2,3-dihydro-1H-pyrazolo[3,4-b]pyridin-6-yl)amino)pyrimidine-4-carbonitrile]
21 | 0.5 to 1 |  | CCNC(=O)c1cccc(Nc2cc(Nc3cccc(-c4nnn(C)n4)c3OC)c3c(=O)n(C)[nH]c3n2)n1 [Compound I-66, N-ethyl-6-((4-((2-methoxy-3-(2-methyl-2H-tetrazol-5-yl)phenyl)amino)-2-methyl-3-oxo-2,3-dihydro-1H-pyrazolo[3,4-b]pyridin-6-yl)amino)picolinamide]
22 | 0.1 to 0.5 |  | COc1c(Cl)cccc1Nc1cc(Nc2ccc(N3CCCC3=O)c(C#N)n2)nc2[nH]n(C)c(=O)c12 [Compound I-134, 6-((4-((3-chloro-2-methoxyphenyl)amino)-2-methyl-3-oxo-2,3-dihydro-1H-pyrazolo[3,4-]pyridin-6-yl)amino)-3-(2-oxopyrrolidin-1-yl)picolinonitrile]
23 | 1 to 10 |  | COc1c(Cl)cccc1Nc1cc(Nc2ccc(N3CCOCC3)cn2)nc2[nH]n(C)c(=O)c12 [Compound I-115, 4-((3-chloro-2-methoxyphenyl)amino)-2-methyl-6-((5-morpholinopyridin-2-yl)amino)-1,2-dihydro-3H-pyrazolo[3,4-b]pyridin-3-one]

Row | SMILES | Kd (Table 4, JH2 binding assay) [nM] | Kd [1] [nM]
24 | CN(c1cc(C2CCCOC2)ccc1Nc1cc(NC(=O)C2CC2)nc2[nH]n(C)c(=O)c12)S(C)(=O)=O (stereo not drawn) [Compound I-240] | 0.1 to 0.5 | 
25 | [2H]C([2H])([2H])n1[nH]c2nc(NC(=O)C3CC3)cc(Nc3cccc(-c4nnn(C)n4)c3OC)c2c1=O [Compound I-100] | < 0.1 | 
26 | COc1c(Nc2cc(Nc3cc(C)nc(C)n3)nc3[nH]n(C)c(=O)c23)cccc1-c1ccn(C)n1 [Compound I-123, 6-((2,6-dimethylpyrimidin-4-yl)amino)-4-((2-methoxy-3-(1-methyl-1H-pyrazol-3-yl)phenyl)amino)-2-methyl-1,2-dihydro-3H-pyrazolo[3,4-b]pyridin-3-one] | 0.1 to 0.5 | 
27 | COc1c(Nc2cc(NC(=O)C3CC3)nc3[nH]n(C)c(=O)c23)cccc1-c1ccn(C)n1 [Compound I-57] | < 0.1 | 
28 | COCc1ccc(Nc2cc(Nc3ccc(OC)c(C(F)(F)F)n3)nc3[nH]n(C)c(=O)c23)c(OC)c1 [Compound I-104, 4-((2-methoxy-4-(methoxymethyl)phenyl)amino)-6-((5-methoxy-6-(trifluoromethyl)pyridin-2-yl)amino)-2-methyl-1,2-dihydro-3H-pyrazolo[3,4-b]pyridin-3-one] | > 10 | 
29 | COc1c(Cl)cccc1Nc1cc(Nc2cc3n(n2)CCOC3)nc2[nH]n(C)c(=O)c12 [Compound I-221, 4-((3-chloro-2-methoxyphenyl)amino)-6-((6,7-dihydro-4H-pyrazolo[5,1-c][1,4]oxazin-2-yl)amino)-2-methyl-1,2-dihydro-3H-pyrazolo[3,4-b]pyridin-3-one] | 0.1 to 0.5 | 
30 | CN(c1ccccc1Nc1cc(Nc2cc3c(cn2)COC3)nc2[nH]n(C)c(=O)c12)S(C)(=O)=O [Compound I-227, N-(2-((6-((1,3-dihydrofuro[3,4-c]pyridin-6-yl)amino)-2-methyl-3-oxo-2,3-dihydro-1H-pyrazolo[3,4-b]pyridin-4-yl)amino)phenyl)-N-methylmethanesulfonamide] | < 0.1 | 
31 | COc1c(Nc2cc(NC(=O)C3CC3)nc3[nH]n(C)c(=O)c23)cccc1-c1nc(C)nn1C [Compound I-46, N-(4-((3-(1,3-dimethyl-1H-1,2,4-triazol-5-yl)-2-methoxyphenyl)amino)-2-methyl-3-oxo-2,3-dihydro-1H-pyrazolo[3,4-b]pyridin-6-yl)cyclopropanecarboxamide] | 0.5 to 1 | 
32 | COCc1ccc(Nc2cc(Nc3ccc(C(=O)N4CCCC4)c(C(F)(F)F)n3)nc3[nH]n(C)c(=O)c23)c(OC)c1 [Compound I-92, 4-((2-methoxy-4-(methoxymethyl)phenyl)amino)-2-methyl-6-((5-(pyrrolidine-1-carbonyl)-6-(trifluoromethyl)pyridin-2-yl)amino)-1,2-dihydro-3H-pyrazolo[3,4-b]pyridin-3-one] | 0.1 to 0.5 | 
33 | COCc1ccc(Nc2cc(NC(=O)C3CC3)nc3[nH]n(C)c(=O)c23)c(OC)c1 [Compound I-45, N-(4-((2-methoxy-4-(methoxymethyl)phenyl)amino)-2-methyl-3-oxo-2,3-dihydro-1H-pyrazolo[3,4-b]pyridin-6-yl)cyclopropanecarboxamide] | 1 to 10 | 
